Reference: patent US11730712B2, “Functionalized long-chain hydrocarbon mono- and di-carboxylic acids and derivatives thereof, and their use for the prevention or treatment of disease” (ESPERVITA THERAPEUTICS, INC., priority 2021, dated 2023)
“And” between values parts separate entries of the source, which are not always exact repeats. Identical values can stand only once.

What was measured:
DDR2 = target: T1, DDR2 (Homo sapiens, UniProt Q16832); assay: Kinase assay, wild type kinases; assay type: biochemical; settings: compound 10 μM, 10 μM ATP, duplicate (Data 1, Data 2), >100 activation, <100 inhibition; for remaining activity at 10 µM: read-out: % Enzyme Activity (relative to DMSO controls), DDR2
T1 sequence (Q16832 22-855): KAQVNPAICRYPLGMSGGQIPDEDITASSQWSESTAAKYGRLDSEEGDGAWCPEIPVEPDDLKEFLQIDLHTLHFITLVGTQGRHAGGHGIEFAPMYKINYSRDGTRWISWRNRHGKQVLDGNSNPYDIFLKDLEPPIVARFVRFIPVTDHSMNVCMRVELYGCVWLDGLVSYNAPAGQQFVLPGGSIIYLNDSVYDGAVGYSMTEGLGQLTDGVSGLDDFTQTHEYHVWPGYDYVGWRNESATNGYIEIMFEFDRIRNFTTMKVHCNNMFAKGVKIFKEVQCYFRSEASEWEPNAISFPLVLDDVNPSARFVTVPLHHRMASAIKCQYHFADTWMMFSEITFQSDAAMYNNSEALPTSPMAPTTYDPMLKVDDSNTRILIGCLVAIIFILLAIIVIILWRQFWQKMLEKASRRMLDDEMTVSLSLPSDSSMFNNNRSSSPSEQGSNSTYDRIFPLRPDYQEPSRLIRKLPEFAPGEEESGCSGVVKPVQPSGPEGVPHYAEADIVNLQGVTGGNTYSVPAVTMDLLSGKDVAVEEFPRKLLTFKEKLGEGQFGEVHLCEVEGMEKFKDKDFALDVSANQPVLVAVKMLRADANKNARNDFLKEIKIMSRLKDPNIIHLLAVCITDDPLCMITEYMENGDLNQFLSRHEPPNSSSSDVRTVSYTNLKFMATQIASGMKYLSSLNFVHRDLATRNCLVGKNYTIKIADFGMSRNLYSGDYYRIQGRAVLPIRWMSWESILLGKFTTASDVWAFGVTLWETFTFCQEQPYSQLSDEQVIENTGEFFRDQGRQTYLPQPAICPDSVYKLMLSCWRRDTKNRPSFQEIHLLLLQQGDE

[1] = test system: human hematopoietic stem and progenitor cells (CD45+CD34+); assay: Megakaryopoiesis and platelet production in cultured hematopoietic stem and progenitor cells; assay type: cell-based; settings: 30 μM, added day 6
Protocol: Materials and Methods. Hematopoietic stem and progenitor cells, identified as viable CD45+CD34+ cells, were isolated from peripheral blood of healthy donors by a method known in the art (see Ivetic N. Nazi I, Karim N et al. Producing megakaryocytes from a human peripheral blood source. Transfusion 2016; 56:1066-74). These isolated cells were then analyzed for purity before being expanded for four days using a commercial supplement to increase their cell population. After expansion, the cells were analyzed for purity, washed, and stimulated with a saturating concentration of thrombopoietin (20 ng/mL) and stem cell factor (50 ng/mL) to begin megakaryopoiesis. Compound I-32 and Compound I-1 were added at this timepoint at a concentration of 30 μM. The cells were then cultured for 8 days to develop into megakaryocytes and analyzed via flow cytometry to assess their number, maturity, and platelet count as defined by CD41a, CD42b and Calcein-AM expression. In addition, Compound I-32 and Compound I-1 were added to cells during the later stages of development (day 6) to assess their impact on maturation. ABT-737 ([…]) was used as a positive control and a DMSO vehicle control (<0.15% v/v) was the negative control. […]
Statistical analysis. Statistical analyses were carried out by comparing effects on measured parameters in comparison to vehicle control. […]

RIPK4 = target: T2, RIPK4 (Homo sapiens, UniProt P57078); assay: Kinase assay, wild type kinases; assay type: biochemical; settings: compound 10 μM, 10 μM ATP, duplicate (Data 1, Data 2), >100 activation, <100 inhibition; for remaining activity at 10 µM: read-out: % Enzyme Activity (relative to DMSO controls), RIPK4
T2 sequence (P57078 1-832): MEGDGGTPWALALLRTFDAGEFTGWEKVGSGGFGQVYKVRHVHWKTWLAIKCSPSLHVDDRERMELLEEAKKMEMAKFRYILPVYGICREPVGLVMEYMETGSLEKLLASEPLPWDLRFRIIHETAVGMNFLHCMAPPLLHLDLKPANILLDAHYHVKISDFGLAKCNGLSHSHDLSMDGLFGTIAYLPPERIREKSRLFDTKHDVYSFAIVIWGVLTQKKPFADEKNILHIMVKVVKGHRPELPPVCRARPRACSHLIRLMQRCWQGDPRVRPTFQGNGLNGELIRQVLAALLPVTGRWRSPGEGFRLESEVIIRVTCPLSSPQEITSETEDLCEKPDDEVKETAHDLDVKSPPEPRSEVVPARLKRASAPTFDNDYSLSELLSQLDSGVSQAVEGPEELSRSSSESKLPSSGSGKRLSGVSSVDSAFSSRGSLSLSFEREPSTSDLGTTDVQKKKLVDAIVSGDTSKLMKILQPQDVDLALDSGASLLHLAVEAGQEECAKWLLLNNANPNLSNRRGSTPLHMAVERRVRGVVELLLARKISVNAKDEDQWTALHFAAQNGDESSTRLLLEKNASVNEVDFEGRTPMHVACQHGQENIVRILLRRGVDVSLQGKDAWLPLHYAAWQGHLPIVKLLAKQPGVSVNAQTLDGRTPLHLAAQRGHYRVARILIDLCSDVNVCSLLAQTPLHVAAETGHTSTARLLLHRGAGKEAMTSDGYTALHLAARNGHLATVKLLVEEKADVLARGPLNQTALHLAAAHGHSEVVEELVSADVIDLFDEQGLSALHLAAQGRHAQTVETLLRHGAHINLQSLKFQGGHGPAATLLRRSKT

c-Kit = c-Kit (Homo sapiens, UniProt P10721); assay: Kinase assay, wild type kinases; assay type: biochemical; settings: compound 10 μM, 10 μM ATP, duplicate (Data 1, Data 2), >100 activation, <100 inhibition; for remaining activity at 10 µM: read-out: % Enzyme Activity (relative to DMSO controls), c-Kit
Sequence of c-Kit (P10721 26-976): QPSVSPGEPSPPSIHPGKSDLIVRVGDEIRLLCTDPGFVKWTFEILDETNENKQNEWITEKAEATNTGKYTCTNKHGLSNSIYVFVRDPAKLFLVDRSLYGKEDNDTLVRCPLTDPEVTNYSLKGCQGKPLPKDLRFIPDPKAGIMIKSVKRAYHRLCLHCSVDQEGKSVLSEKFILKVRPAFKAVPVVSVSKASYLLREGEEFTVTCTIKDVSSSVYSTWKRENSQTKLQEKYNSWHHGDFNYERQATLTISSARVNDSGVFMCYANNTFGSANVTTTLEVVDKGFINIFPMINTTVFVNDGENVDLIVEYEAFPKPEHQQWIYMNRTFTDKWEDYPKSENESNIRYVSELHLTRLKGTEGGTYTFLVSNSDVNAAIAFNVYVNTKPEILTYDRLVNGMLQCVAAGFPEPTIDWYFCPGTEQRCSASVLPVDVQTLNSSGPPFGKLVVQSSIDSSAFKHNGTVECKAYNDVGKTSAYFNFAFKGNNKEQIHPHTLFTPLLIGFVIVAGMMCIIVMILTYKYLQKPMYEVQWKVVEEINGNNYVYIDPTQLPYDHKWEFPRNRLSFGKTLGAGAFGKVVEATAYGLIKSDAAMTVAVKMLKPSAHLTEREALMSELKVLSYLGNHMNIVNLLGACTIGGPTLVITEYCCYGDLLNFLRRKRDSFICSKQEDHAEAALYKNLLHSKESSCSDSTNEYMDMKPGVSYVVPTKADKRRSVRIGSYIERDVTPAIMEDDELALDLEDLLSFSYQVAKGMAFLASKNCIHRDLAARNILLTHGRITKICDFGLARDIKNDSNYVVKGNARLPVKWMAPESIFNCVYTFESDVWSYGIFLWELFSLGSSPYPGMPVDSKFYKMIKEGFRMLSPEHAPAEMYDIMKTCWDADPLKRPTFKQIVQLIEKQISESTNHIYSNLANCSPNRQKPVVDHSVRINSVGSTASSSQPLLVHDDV

| Structure (SMILES) | remaining activity at 10 µM (DDR2) [%] | inhibition of megakaryopoiesis/platelet parameters after addition on day 6 of culture [1] | remaining activity at 10 µM (RIPK4) [%] | remaining activity at 10 µM (c-Kit) [%] | % Enzyme Activity (relative to DMSO controls), DDR2 (DDR2) | % Enzyme Activity (relative to DMSO controls), RIPK4 (RIPK4) | % Enzyme Activity (relative to DMSO controls), c-Kit (c-Kit) |
| --- | --- | --- | --- | --- | --- | --- | --- |
| CC(C)(CCCCc1cccc(CCCCC(C)(C)C(=O)O)c1)C(=O)O [Compound I-32, 6-[3-(5-carboxy-5-methylhexyl)-phenyl]-2,2-dimethylhexanoic acid] | 91.4 | no inhibition detected | 43 | 73.6 | – | – | – |
| CC(C)(CCCCc1ccc(CCCCC(C)(C)C(=O)O)cc1)C(=O)O [Compound I-1, 6-[4-(5-carboxy-5-methylhexyl)-phenyl]-2,2-dimethylhexanoic acid] | 79.8 | no inhibition detected | 45.1 | 85.5 | – | – | – |
| CC(C)(CCCCc1cccc(CCCCC(C)(C)C(=O)SCCNC(=O)CCNC(=O)[C@H](O)C(C)(C)COP(=O)(O)OP(=O)(O)OC[C@H]2O[C@@H](n3cnc4c(N)ncnc43)[C@H](O)[C@@H]2OP(=O)(O)O)c1)C(=O)O [Compound I-32-CoA, 6-[3-(5-Carboxy-5-methylhexyl)-phenyl]-2,2-dimethylhexanoic acid Coenzyme A Ester] | – | – | – | – | 29.98% and 25.40% | 33.02% and 32.84% | 49.53% and 49.21% |
| CC(C)(CCCCc1ccc(CCCCC(C)(C)C(=O)SCCNC(=O)CCNC(=O)[C@H](O)C(C)(C)COP(=O)(O)OP(=O)(O)OC[C@H]2O[C@@H](n3cnc4c(N)ncnc43)[C@H](O)[C@@H]2OP(=O)(O)O)cc1)C(=O)O [Compound I-1-CoA, 6-[4-(5-carboxy-5-methylhexyl)-phenyl]-2,2-dimethylhexanoic acid Coenzyme A ester] | – | – | – | – | 88.28% and 79.94% | 32.26% and 29.70% | 73.56% and 73.24% |
